In ChEMBL document CHEMBL1944566, “Conjugation of cell-penetrating peptides leads to identification of anti-HIV peptides from matrix proteins” (Bioorg Med Chem, 2012):
Where a SMILES comes first, the peptide text is derived from it. The star is where a group is joined. Cam = NC(=O)C*

Experiments:
[1] = test system: Human immunodeficiency virus 1; assay: Antiviral activity against R5 tropic HIV1 NL(AD8) in PM1/CCR5 cells assessed as protection from virus-induced cytopathogenicity after 5 days by MTT assay; format: functional, organism-based; conditions: Human immunodeficiency virus 1, NL(AD8), PM1/CCR5, 120 h
[2] = test system: Human immunodeficiency virus 1; assay: Antiviral activity against R5 tropic HIV1 JR-CSF in PM1/CCR5 cells assessed as protection from virus-induced cytopathogenicity measuring capsid p24 level after 5 days by ELISA; format: functional, cell-based; conditions: Human immunodeficiency virus 1, JRCSF ISOLATE, PM1/CCR5, 120 h
[3] = Cytotoxicity against human MT4 cells after 5 days by MTT assay; format: cell-based
[4] = test system: Human immunodeficiency virus 1; assay: Antiviral activity against X4 tropic HIV1 NL4-3 in MT4 cells assessed as protection from virus-induced cytopathogenicity after 5 days by MTT assay; format: functional, organism-based; conditions: Human immunodeficiency virus 1, NL4-3, MT4, 120 h
[5] = test system: Human immunodeficiency virus 1; assay: Antiviral activity against R5 tropic HIV1 NL(AD8) in PM1/CCR5 cells assessed as protection from virus-induced cytopathogenicity at 50 uM after 5 days by MTT assay; format: functional; conditions: Human immunodeficiency virus 1, NL(AD8), PM1/CCR5, 120 h

SMILES: CSCC[C@H](N)C(=O)NCC(=O)N[C@@H](C)C(=O)N[C@@H](CCCNC(=N)N)C(=O)N[C@@H](C)C(=O)N[C@@H](CO)C(=O)N[C@H](C(=O)N[C@@H](CC(C)C)C(=O)N[C@@H](CO)C(=O)NCC(=O)NCC(=O)N[C@@H](CCC(=O)O)C(=O)N[C@@H](CC(C)C)C(=O)N[C@@H](CC(=O)O)C(=O)N[C@@H](CCCCN)C(=O)NCC(=O)N[C@@H](CSCC(=O)N[C@@H](CCCNC(=N)N)C(=O)N[C@@H](CCCNC(=N)N)C(=O)N[C@@H](CCCNC(=N)N)C(=O)N[C@@H](CCCNC(=N)N)C(=O)N[C@@H](CCCNC(=N)N)C(=O)N[C@@H](CCCNC(=N)N)C(=O)N[C@@H](CCCNC(=N)N)C(=O)N[C@@H](CCCNC(=N)N)C(N)=O)C(N)=O)C(C)C
- EC50 [1]: 30 µM
- EC50 [2]: 40 µM
- CC50 at 120 h [3]: > 50 µM
- EC50 [4]: 30 µM

SMILES: CC[C@H](C)[C@H](NC(=O)[C@H](Cc1cnc[nH]1)NC(=O)[C@H](CCCCN)NC(=O)[C@H](CC(C)C)NC(=O)[C@H](CCCCN)NC(=O)[C@H](Cc1ccc(O)cc1)NC(=O)[C@H](CCC(N)=O)NC(=O)[C@H](CCCCN)NC(=O)[C@H](CCCCN)NC(=O)CNC(=O)CNC(=O)[C@@H]1CCCN1C(=O)[C@H](CCCNC(=N)N)NC(=O)[C@H](CC(C)C)NC(C)=O)C(=O)N[C@H](C(=O)NCC(=O)N[C@@H](CSCC(N)=O)C(N)=O)C(C)C
- CC50 at 120 h [3]: > 50 µM
- EC50 [4]: > 50 µM

SMILES: CC[C@H](C)[C@H](NC(=O)[C@H](CCCCN)NC(=O)[C@H](CC(=O)O)NC(=O)[C@H](CC(C)C)NC(C)=O)C(=O)N[C@@H](CCC(=O)O)C(=O)N[C@@H](CCC(=O)O)C(=O)N[C@@H](CCC(=O)O)C(=O)N[C@@H](CCC(N)=O)C(=O)N[C@@H](CC(N)=O)C(=O)N[C@@H](CCCCN)C(=O)N[C@@H](CO)C(=O)N[C@@H](CCCCN)C(=O)N[C@@H](CCCCN)C(=O)N[C@@H](CCCCN)C(=O)N[C@@H](C)C(=O)NCC(=O)N[C@@H](CSCC(N)=O)C(N)=O (Ac-LDKIEEEQNKSKKKAGC(Cam)-NH2)
- CC50 at 120 h [3]: > 50 µM
- EC50 [4]: > 50 µM

SMILES: CC[C@H](C)[C@H](NC(=O)[C@H](CCC(N)=O)NC(=O)[C@H](CCCNC(=N)N)NC(=O)[C@H](CO)NC(=O)CNC(=O)[C@H](CCC(=O)O)NC(=O)[C@H](CO)NC(=O)[C@@H](NC(=O)[C@H](CCC(=O)O)NC(=O)[C@H](CC(C)C)NC(C)=O)[C@@H](C)O)C(=O)N[C@@H](CC(C)C)C(=O)NCC(=O)N[C@@H](CCC(N)=O)C(=O)N[C@@H](CC(C)C)C(=O)N[C@@H](CCC(N)=O)C(=O)NCC(=O)N[C@@H](CSCC(=O)N[C@@H](CCCNC(=N)N)C(=O)N[C@@H](CCCNC(=N)N)C(=O)N[C@@H](CCCNC(=N)N)C(=O)N[C@@H](CCCNC(=N)N)C(=O)N[C@@H](CCCNC(=N)N)C(=O)N[C@@H](CCCNC(=N)N)C(=O)N[C@@H](CCCNC(=N)N)C(=O)N[C@@H](CCCNC(=N)N)C(N)=O)C(N)=O
- inhibition at 50 µM [5]: 49%
- EC50 [2]: 31 µM
- CC50 at 120 h [3]: > 50 µM
- EC50 [4]: 40 µM

SMILES: CC[C@H](C)[C@H](NC(=O)[C@H](CCCCN)NC(=O)[C@H](CC(=O)O)NC(=O)[C@H](CC(C)C)NC(=O)[C@H](C)NC(=O)[C@H](CCC(=O)O)NC(=O)[C@H](CCCCN)NC(=O)[C@@H](NC(=O)[C@H](CC(=O)O)NC(=O)[C@H](CCCCN)NC(=O)[C@@H](NC(=O)[C@H](CC(=O)O)NC(=O)[C@@H](NC(=O)[C@H](CCCNC(=N)N)NC(C)=O)[C@@H](C)CC)C(C)C)[C@@H](C)O)C(=O)N[C@@H](CCC(=O)O)C(=O)NCC(=O)N[C@@H](CSCC(=O)N[C@@H](CCCNC(=N)N)C(=O)N[C@@H](CCCNC(=N)N)C(=O)N[C@@H](CCCNC(=N)N)C(=O)N[C@@H](CCCNC(=N)N)C(=O)N[C@@H](CCCNC(=N)N)C(=O)N[C@@H](CCCNC(=N)N)C(=O)N[C@@H](CCCNC(=N)N)C(=O)N[C@@H](CCCNC(=N)N)C(N)=O)C(N)=O
- inhibition at 50 µM [5]: 42%
- EC50 [2]: 27 µM
- CC50 at 120 h [3]: > 50 µM
- EC50 [4]: 43 µM

SMILES: COC[C@@H](c1ccc(C(F)(F)F)cc1)N1CCN(C2(C)CCN(C(=O)c3c(C)ncnc3C)CC2)C[C@@H]1C [VICRIVIROC]
- EC50 [1]: 0.026 µM
- EC50 [2]: 0.0014 µM

SMILES: CC(=O)N[C@@H](CO)C(=O)N[C@@H](CCCCN)C(=O)N[C@@H](CCCCN)C(=O)N[C@@H](CCCCN)C(=O)N[C@@H](C)C(=O)N[C@@H](CCC(N)=O)C(=O)N[C@@H](CCC(N)=O)C(=O)N[C@@H](C)C(=O)N[C@@H](C)C(=O)N[C@@H](C)C(=O)N[C@@H](CC(=O)O)C(=O)N[C@H](C(=O)NCC(=O)N[C@@H](CC(N)=O)C(=O)N[C@@H](CC(N)=O)C(=O)NCC(=O)N[C@@H](CSCC(N)=O)C(N)=O)[C@@H](C)O
- CC50 at 120 h [3]: > 50 µM
- EC50 [4]: > 50 µM

SMILES: CC(=O)N[C@@H](CC(C)C)C(=O)N[C@@H](CCC(=O)O)C(=O)N[C@@H](CCCNC(=N)N)C(=O)N[C@@H](Cc1ccccc1)C(=O)N[C@@H](C)C(=O)N[C@H](C(=O)N[C@@H](CC(N)=O)C(=O)N1CCC[C@H]1C(=O)NCC(=O)N[C@@H](CC(C)C)C(=O)N[C@@H](CC(C)C)C(=O)N[C@@H](CCC(=O)O)C(=O)N[C@H](C(=O)N[C@@H](CO)C(=O)N[C@@H](CCC(=O)O)C(=O)NCC(=O)N[C@@H](CSCC(N)=O)C(N)=O)[C@@H](C)O)C(C)C (Ac-LERFAVNPGLLETSEGC(Cam)-NH2)
- CC50 at 120 h [3]: > 50 µM
- EC50 [4]: > 50 µM

SMILES: CC(=O)N[C@@H](CC(C)C)C(=O)NCC(=O)N[C@@H](CCC(N)=O)C(=O)N[C@@H](CC(C)C)C(=O)N[C@@H](CCC(N)=O)C(=O)N1CCC[C@H]1C(=O)N[C@@H](CO)C(=O)N[C@@H](CC(C)C)C(=O)N[C@@H](CCC(N)=O)C(=O)N[C@H](C(=O)NCC(=O)N[C@@H](CO)C(=O)N[C@@H](CCC(=O)O)C(=O)N[C@@H](CCC(=O)O)C(=O)N[C@@H](CC(C)C)C(=O)NCC(=O)N[C@@H](CSCC(N)=O)C(N)=O)[C@@H](C)O (Ac-LGQLQPSLQTGSEELGC(Cam)-NH2)
- CC50 at 120 h [3]: > 50 µM
- EC50 [4]: > 50 µM

SMILES: Cc1cn([C@H]2C[C@H](N=[N+]=[N-])[C@@H](CO)O2)c(=O)[nH]c1=O [ZIDOVUDINE]
- EC50 [1]: 0.459 µM
- EC50 [2]: 0.17 µM
- CC50 at 120 h [3]: > 100 µM
- EC50 [4]: 0.02 µM

SMILES: CC[C@H](C)[C@H](NC(=O)[C@H](CCCCN)NC(=O)[C@H](CCC(=O)O)NC(=O)[C@H](Cc1c[nH]c2ccccc12)NC(=O)[C@H](CCCCN)NC(=O)[C@H](CC(=O)O)NC(=O)[C@H](CC(C)C)NC(=O)[C@H](CCC(=O)O)NC(=O)CNC(C)=O)C(=O)N[C@@H](CCCNC(=N)N)C(=O)N[C@@H](CC(C)C)C(=O)N[C@@H](CCCNC(=N)N)C(=O)N1CCC[C@H]1C(=O)NCC(=O)NCC(=O)NCC(=O)N[C@@H](CSCC(=O)N[C@@H](CCCNC(=N)N)C(=O)N[C@@H](CCCNC(=N)N)C(=O)N[C@@H](CCCNC(=N)N)C(=O)N[C@@H](CCCNC(=N)N)C(=O)N[C@@H](CCCNC(=N)N)C(=O)N[C@@H](CCCNC(=N)N)C(=O)N[C@@H](CCCNC(=N)N)C(=O)N[C@@H](CCCNC(=N)N)C(N)=O)C(N)=O
- EC50 [1]: > 31 µM
- CC50 at 120 h [3]: 32 µM
- EC50 [4]: 21 µM

SMILES: CC(=O)N[C@@H](CC(=O)O)C(=O)N[C@H](C(=O)NCC(=O)N[C@@H](CC(N)=O)C(=O)N[C@@H](CC(N)=O)C(=O)N[C@@H](CO)C(=O)N[C@@H](CCC(N)=O)C(=O)N[C@H](C(=O)N[C@@H](CO)C(=O)N[C@@H](CCC(N)=O)C(=O)N[C@@H](CC(N)=O)C(=O)N[C@@H](Cc1ccc(O)cc1)C(=O)NCC(=O)N[C@@H](CSCC(=O)N[C@@H](CCCNC(=N)N)C(=O)N[C@@H](CCCNC(=N)N)C(=O)N[C@@H](CCCNC(=N)N)C(=O)N[C@@H](CCCNC(=N)N)C(=O)N[C@@H](CCCNC(=N)N)C(=O)N[C@@H](CCCNC(=N)N)C(=O)N[C@@H](CCCNC(=N)N)C(=O)N[C@@H](CCCNC(=N)N)C(N)=O)C(N)=O)C(C)C)[C@@H](C)O
- EC50 [1]: 0.43 µM
- EC50 [2]: 11 µM
- CC50 at 120 h [3]: > 50 µM
- EC50 [4]: 20 µM

SMILES: CC[C@H](C)[C@H](NC(=O)[C@H](CCCCN)NC(=O)[C@H](CCC(=O)O)NC(=O)[C@H](Cc1c[nH]c2ccccc12)NC(=O)[C@H](CCCCN)NC(=O)[C@H](CC(=O)O)NC(=O)[C@H](CC(C)C)NC(=O)[C@H](CCC(=O)O)NC(=O)CNC(C)=O)C(=O)N[C@@H](CCCNC(=N)N)C(=O)N[C@@H](CC(C)C)C(=O)N[C@@H](CCCNC(=N)N)C(=O)N1CCC[C@H]1C(=O)NCC(=O)NCC(=O)NCC(=O)N[C@@H](CSCC(N)=O)C(N)=O
- EC50 [1]: 1 µM
- CC50 at 120 h [3]: > 50 µM
- EC50 [4]: 17 µM

SMILES: CC[C@H](C)[C@H](NC(=O)[C@H](Cc1cnc[nH]1)NC(=O)[C@H](CCCCN)NC(=O)[C@H](CC(C)C)NC(=O)[C@H](CCCCN)NC(=O)[C@H](Cc1ccc(O)cc1)NC(=O)[C@H](CCC(N)=O)NC(=O)[C@H](CCC(=O)O)NC(=O)[C@H](Cc1c[nH]c2ccccc12)NC(=O)[C@H](CCCCN)NC(=O)[C@H](CC(=O)O)NC(=O)[C@H](CC(C)C)NC(=O)[C@H](CCC(=O)O)NC(=O)CNC(C)=O)C(=O)N[C@H](C(=O)NCC(=O)N[C@@H](CSCC(N)=O)C(N)=O)C(C)C (Ac-GELDKWEQYKLKHIVGC(Cam)-NH2)
- CC50 at 120 h [3]: > 50 µM
- EC50 [4]: > 50 µM

SMILES: CSCC[C@H](N)C(=O)NCC(=O)N[C@@H](C)C(=O)N[C@@H](CCCNC(=N)N)C(=O)N[C@@H](C)C(=O)N[C@@H](CO)C(=O)N[C@H](C(=O)N[C@@H](CC(C)C)C(=O)N[C@@H](CO)C(=O)NCC(=O)NCC(=O)N[C@@H](CCC(=O)O)C(=O)N[C@@H](CC(C)C)C(=O)N[C@@H](CC(=O)O)C(=O)N[C@@H](CCCCN)C(=O)NCC(=O)N[C@@H](CSCC(N)=O)C(N)=O)C(C)C (H-MGARASVLSGGELDKGC(Cam)-NH2)
- CC50 at 120 h [3]: > 50 µM
- EC50 [4]: > 50 µM
